According to patent US20210238139A1, “MODULATORS OF TRYPTOPHAN CATABOLISM” (E-Therapeutics PLC, priority 2018, published 2021):

Tested on: SK-OV-3 cells
Test: Effect of compounds on tryptophan catabolism in SK-OV-3 cell line (inhibition of kynurenine production, LC-MS/MS)
Type: cell-based
Conditions: Homo sapiens, SK-OV-3, 24 h, SK-OV-3 cell line, 24 h incubation, kynurenine in supernatant by LC-MS/MS; read-out: IC50 Ranges (ic50 values for inhibition of Kynurenine production)
Experimental: SK-OV-3 cells are seeded in 96-well plates in McCoy's 5A medium supplemented with 10% FBS and incubated overnight at 37° C., 5% CO2, 95% humidity. The […] growth medium is replaced with DMEM F-12 medium supplemented with 6 mg/mL L-tryptophan. Compounds are added to the wells and incubated for 24 h at 37° C., 5% CO2, 95% humidity. Compounds are tested at 8 consecutive 3-fold dilutions starting from 30 μM in duplicate. At the end of incubation, concentration of kynurenine in cell supernatants is […] determined by LC-MS/MS. In parallel, cell viability is assessed by measurement of ATP using CellTiter Glo assay (Promega), according to manufacturer's protocol. Inhibition of Kyn production is calculated using the following formula: […] IC50 ranges for compounds of the invention are presented in Table 2, whereby the IC50 ranges are as follows: • A: […]

| IC50 [nM] | Structure (SMILES) |
| --- | --- |
| 1000 to 5000 | CC(=O)c1ccc(NC(=O)N(Cc2ccc(C)o2)C2CCCC2)cc1 [Compound 94, 3-(4-acetylphenyl)-1-cyclopentyl-1-[(5-methyl-2-furyl)methyl]urea] |
| 1000 to 5000 | Cc1ccc(CN(C(=O)Nc2ccccc2C#N)C2CCCC2)o1 [Compound 95, 3-(2-cyanophenyl)-1-cyclopentyl-1-[(5-methyl-2-furyl)methyl]urea] |
| > 5000 | Cc1ccc(CN(C(=O)NCc2ccc(C#N)cc2)C2CCCC2)o1 [Compound 96, 3-[(4-cyanophenyl)methyl]-1-cyclopentyl-1-[(5-methyl-2-furyl)methyl]urea] |
| 1000 to 5000 | CC(=O)N1CCC(C)(CN(C(=O)Nc2ccccc2)C2CCCC2)CC1 [Compound 97, 1-[(1-acetyl-4-methyl-4-piperidyl)methyl]-1-cyclopentyl-3-phenyl-urea] |
| 500 to 1000 | Cc1ccc(CN(C(=O)Nc2ccc(-c3cnn(C(=O)OC(C)(C)C)c3)cc2)C2CCCC2)o1 [Compound 99, tert-butyl 4-[4-[[cyclopentyl-[(5-methyl-2-furyl)methyl]carbamoyl]amino]phenyl]pyrazole-1-carboxylate] |
| > 5000 | Cc1ccc(CN(C(=O)Nc2ccc(-c3cnn(CCN(C)C)c3)cc2)C2CCCC2)o1 [Compound 100, 1-cyclopentyl-3-[4-[1-[2-(dimethylamino)ethyl]pyrazol-4-yl]phenyl]-1-[(5-methyl-2-furyl)methyl]urea] |
| > 5000 | Cc1ccc(CN(C(=O)Nc2ccc(-c3cnn(C(C)(C)CO)c3)cc2)C2CCCC2)o1 [Compound 101, 1-cyclopentyl-3-[4-[1-(2-hydroxy-1,1-dimethyl-ethyl)pyrazol-4-yl]phenyl]-1-[(5-methyl-2-furyl)methyl]urea] |
| 1000 to 5000 | Cc1ccc(CN(C(=O)Nc2ccc(N3CCCC3=O)cc2)C2CCCC2)o1 [Compound 103, 1-cyclopentyl-1-[(5-methyl-2-furyl)methyl]-3-[4-(2-oxopyrrolidin-1-yl)phenyl]urea] |
| 500 to 1000 | Cc1ccc(CN(C(=O)Nc2ccc(-c3cscn3)cc2)C2CCCC2)o1 [Compound 106, 1-cyclopentyl-1-[(5-methyl-2-furyl)methyl]-3-(4-thiazol-4-ylphenyl)urea] |
| < 100 | Cc1ccc(CN(C(=O)Nc2ccc(C#CC3CC3)cc2)C2CCCC2)o1 [Compound 107, 1-cyclopentyl-3-[4-(2-cyclopropylethynyl)phenyl]-1-[(5-methyl-2-furyl)methyl]urea] |
| 100 to 500 | Cc1ccc(CN(C(=O)Nc2ccc(-c3cn[nH]c3)cc2)C2CCCC2)o1 [Compound 108, 1-cyclopentyl-1-[(5-methyl-2-furyl)methyl]-3-[4-(1H-pyrazol-4-yl)phenyl]urea] |
| 500 to 1000 | Cc1ccc(CN(C(=O)Nc2ccc(C#CCN(C)C)cc2)C2CCCC2)o1 [Compound 112, 1-cyclopentyl-3-[4-[3-(dimethylamino)prop-1-ynyl]phenyl]-1-[(5-methyl-2-furyl)methyl]urea] |
| 1000 to 5000 | CC1(CN(C(=O)Nc2ccc(F)cc2)C2CCCC2)CCN(S(C)(=O)=O)CC1 [Compound 113, 1-cyclopentyl-3-(4-fluorophenyl)-1-[(4-methyl-1-methylsulfonyl-4-piperidyl)methyl]urea] |
| 100 to 500 | N#Cc1cc(CN(C(=O)Nc2ccc(Cl)cc2)C2CCCC2)ccn1 [Compound 114, 3-(4-chlorophenyl)-1-[(2-cyano-4-pyridyl)methyl]-1-cyclopentyl-urea] |
| 100 to 500 | N#Cc1cncc(CN(C(=O)Nc2ccc(Cl)cc2)C2CCCC2)c1 [Compound 115, 3-(4-chlorophenyl)-1-[(5-cyano-3-pyridyl)methyl]-1-cyclopentyl-urea] |
| 100 to 500 | N#Cc1ccnc(CN(C(=O)Nc2ccc(Cl)cc2)C2CCCC2)c1 [Compound 116, 3-(4-chlorophenyl)-1-[(4-cyano-2-pyridyl)methyl]-1-cyclopentyl-urea] |
| 1000 to 5000 | Cc1ccc(CN(C(=O)Nc2ccc(C(N)=O)cc2)C2CCCC2)o1 [Compound 117, 4-[[cyclopentyl-[(5-methyl-2-furyl)methyl]carbamoyl]-amino]benzamide] |
| 1000 to 5000 | CC(C)(C)OC(=O)N1CCC(CN(C(=O)Nc2ccccc2)C2CCCC2)CC1 [Compound 118, tert-butyl 4-[[cyclopentyl(phenylcarbamoyl)amino]methyl]piperidine-1-carboxylate] |
| 500 to 1000 | CC(C)(C)OC(=O)N1CCC(CN(C(=O)Nc2ccc(F)cc2)C2CCCC2)CC1 [Compound 119, tert-butyl 4-[[cyclopentyl-[(4-fluorophenyl)carbamoyl]amino]methyl]piperidine-1-carboxylate] |
| 100 to 500 | CC(C)(C)OC(=O)N1CCC(CN(C(=O)Nc2ccc(Cl)cc2)C2CCCC2)CC1 [Compound 120, tert-butyl 4-[[(4-chlorophenyl)carbamoyl-cyclopentyl-amino]methyl]piperidine-1-carboxylate] |
| 500 to 1000 | Cc1ccc(CN(C(=O)Nc2ccc(C#N)cn2)C2CCCC2)o1 [Compound 121, 3-(5-cyano-2-pyridyl)-1-cyclopentyl-1-[(5-methyl-2-furyl)methyl]urea] |

| IC50 [nM] | Structure (SMILES) |
| --- | --- |
| 1000 to 5000 | NC(=O)c1cc(CN(C(=O)Nc2ccc(F)cc2)C2CCCC2)ccc1F [Compound 122, 5-[[cyclopentyl-[(4-fluorophenyl)carbamoyl]amino]methyl]-2-fluoro-benzamide] |
| 100 to 500 | Cc1ccc(CN(C(=O)Nc2ccc(C#N)nc2)C2CCCC2)o1 [Compound 124, 3-(6-cyano-3-pyridyl)-1-cyclopentyl-1-[(5-methyl-2-furyl)methyl]urea] |
| 1000 to 5000 | N#Cc1cccc(CN(C(=O)Nc2ccccc2)C2CCCC2)n1 [Compound 125, 1-[(6-cyano-2-pyridyl)methyl]-1-cyclopentyl-3-phenyl-urea] |
| 500 to 1000 | N#Cc1cccc(CN(C(=O)Nc2ccc(F)cc2)C2CCCC2)n1 [Compound 126, 1-[(6-cyano-2-pyridyl)methyl]-1-cyclopentyl-3-(4-fluorophenyl)urea] |
| > 5000 | O=C(Nc1ccc(F)cc1)N(Cc1ccno1)C1CCCC1 [Compound 127, 1-cyclopentyl-3-(4-fluorophenyl)-1-(isoxazol-5-ylmethyl)urea] |
| 500 to 1000 | O=C(Nc1ccc(Cl)cc1)N(Cc1ccno1)C1CCCC1 [Compound 128, 3-(4-chlorophenyl)-1-cyclopentyl-1-(isoxazol-5-ylmethyl)urea] |
| 1000 to 5000 | Cc1ccc(CN(C(=O)Nc2nc(-c3ccccc3)cs2)C2CCCC2)o1 [Compound 129, 1-cyclopentyl-1-[(5-methyl-2-furyl)methyl]-3-(4-phenylthiazol-2-yl)urea] |
| < 100 | C#Cc1ccc(NC(=O)N(Cc2cc3ccccc3o2)C2CCCC2)cc1 [Compound 131, 1-(benzofuran-2-ylmethyl)-1-cyclopentyl-3-(4-ethynylphenyl)urea] |
| 100 to 500 | N#Cc1ccc(NC(=O)N(Cc2cc3ccccc3o2)C2CCCC2)cc1 [Compound 132, 1-(benzofuran-2-ylmethyl)-3-(4-cyanophenyl)-1-cyclopentyl-urea] |
| 100 to 500 | Cc1ccc(CN(C(=O)Nc2nc(-c3ccccn3)cs2)C2CCCC2)o1 [Compound 133, 1-cyclopentyl-1-[(5-methyl-2-furyl)methyl]-3-[4-(2-pyridyl)thiazol-2-yl]urea] |
| 500 to 1000 | Cc1ccc(CN(C(=O)Nc2nc3ccccc3s2)C2CCCC2)o1 [Compound 134, 3-(1,3-benzothiazol-2-yl)-1-cyclopentyl-1-[(5-methyl-2-furyl)methyl]urea] |
| 1000 to 5000 | Cc1ccc(CN(C(=O)Nc2nc(C#N)cs2)C2CCCC2)o1 [Compound 135, 3-(4-cyanothiazol-2-yl)-1-cyclopentyl-1-[(5-methyl-2-furyl)methyl]urea] |
| > 5000 | Cc1ccc(CN(C(=O)Nc2ccccc2)C2CCN(C(=O)OC(C)(C)C)CC2)o1 [Compound 136, tert-butyl 4-[(5-methyl-2-furyl)methyl-(phenylcarbamoyl)amino]piperidine-1-carboxylate] |
| 1000 to 5000 | Cc1ccc(CN(C(=O)Nc2ccccc2)C(C)C)o1 [Compound 138, 1-isopropyl-1-[(5-methyl-2-furyl)methyl]-3-phenyl-urea] |
| 1000 to 5000 | O=C(Nc1ccc(F)c(F)c1)N(Cc1cccc(OC(F)(F)F)c1)C1CCCC1 [Compound 142, 1-cyclopentyl-3-(3,4-difluorophenyl)-1-[[3 (trifluoromethoxy)phenyl]methyl]urea] |
| 1000 to 5000 | Cc1ncc(CN(C(=O)Nc2ccccc2)C2CCCC2)o1 [Compound 143, 1-cyclopentyl-1-[(2-methyloxazol-5-yl)methyl]-3-phenyl-urea] |
| 1000 to 5000 | Cc1ncc(CN(C(=O)Nc2ccc(F)cc2)C2CCCC2)o1 [Compound 145, 1-cyclopentyl-3-(4-fluorophenyl)-1-[(2-methyloxazol-5-yl)methyl]urea] |
| 500 to 1000 | O=C(Nc1ccc(Cl)cc1)N(Cc1ccon1)C1CCCC1 [Compound 149, 3-(4-chlorophenyl)-1-cyclopentyl-1-(isoxazol-3-ylmethyl)urea] |
| 100 to 500 | Cc1ccc(CN(C(=O)Nc2ccc(-c3ccccc3)cc2)C2CCCC2)o1 [Compound 150, 1-cyclopentyl-1-[(5-methyl-2-furyl)methyl]-3-(4-phenylphenyl)urea] |
| 500 to 1000 | Cc1ccc(CN(C(=O)Nc2nnc(-c3cc4ccccc4o3)o2)C2CCCC2)o1 [Compound 151, 3-[5-(benzofuran-2-yl)-1,3,4-oxadiazol-2-yl]-1-cyclopentyl-1-[(5-methyl-2-furyl)methyl]urea] |
| 100 to 500 | N#Cc1ccc(NC(=O)N(Cc2ccnc(C(F)(F)F)c2)C2CCC2)cc1 [Compound 152, 3-(4-cyanophenyl)-1-cyclobutyl-1-[[2-(trifluoromethyl)-4-pyridyl]methyl]urea] |
